{"source": "patent US20070093392A1", "about": "(priority 2005, published 2007)", "test_system": "gerbils", "conditions": "in vivo"}
{"smiles": "COc1cc(CNC(=O)CCCC/C=C/C(C)C)ccc1O", "note": "[capsaicin]", "values": [{"measurement": "Rodent repellent effect, overall", "value": "very effective rodent repellent"}]}
